Measured values: patent US20100076037A1, “Methods of Treating Neuropathic Pain with Agonists of PPAR-gamma” (priority 2006, published 2010)
Where two headings read alike, the source gives them in different places.

Key:
[1] = tested on: Male Sprague-Dawley rats; assay: mechanical allodynia induced by spinal nerve ligation (SNL) in rats, von Frey; type: in vivo, rat; settings: 20 mg/kg PO, post-SNL day 16, vs. vehicle
Procedure: Male Sprague-Dawley rats (Hsd:Sprague-Dawley®SD®, Harlan, Indianapolis, Ind., U.S.A.) weighing 223±2 g on Day14 were housed three per cage. Animals had free access to food and water and were maintained on a 12:12 h light/dark schedule for the entire duration of the study. The animal colony was maintained at 21° C. and 60% humidity. All experiments were conducted in accordance with the International Association for the Study of Pain guidelines and were approved by the University of Minnesota Animal Care and Use Committee.
The Spinal Nerve Ligation (SNL) model was used to induce chronic neuropathic pain. […]
Baseline, post-injury and post-treatment values for non-noxious mechanical sensitivity were evaluated using 8 Semmes-Weinstein filaments (Stoelting, Wood Dale, Ill., USA) with varying stiffness (0.4, 0.7, 1.2, 2.0, 3.6, 5.5, 8.5, and 15 g) according to the up-down method. […] The mean and standard error of the mean (SEM) were determined for each paw in each treatment group. […]
Statistical analyses were conducted using Prism™ 4.01 (GraphPad, San Diego, Calif., USA). Mechanical hypersensitivity of the injured paw was determined by comparing pre-SNL to post-SNL values at Day14. Data were analyzed using the Wilcoxon test. […] Drug effect was analyzed by comparing post-vehicle and post-drug values using the Friedman test followed by a Dunn's post hoc test.

[2] = molecular target: PPAR δ (Homo sapiens, UniProt Q03181); settings: cited from earlier work
PPAR δ, sequence (Q03181 whole entry, species assumed): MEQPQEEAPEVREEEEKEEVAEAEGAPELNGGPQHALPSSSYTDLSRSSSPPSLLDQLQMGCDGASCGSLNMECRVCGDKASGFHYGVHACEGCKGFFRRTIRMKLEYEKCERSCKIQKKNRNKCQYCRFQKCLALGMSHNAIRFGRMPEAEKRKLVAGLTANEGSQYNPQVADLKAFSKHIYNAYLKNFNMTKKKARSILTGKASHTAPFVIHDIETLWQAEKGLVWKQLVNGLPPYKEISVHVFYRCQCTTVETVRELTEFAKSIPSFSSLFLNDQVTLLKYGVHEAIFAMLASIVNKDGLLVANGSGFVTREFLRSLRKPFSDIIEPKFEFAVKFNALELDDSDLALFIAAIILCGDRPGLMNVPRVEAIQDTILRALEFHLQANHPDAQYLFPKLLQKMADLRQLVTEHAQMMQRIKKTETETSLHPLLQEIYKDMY

[3] = cited from earlier work
[4] = tested on: male db/db mice; settings: 5 mg/kg bid for 14 days; cited from earlier work
[5] = tested on: Zucker diabetic fatty (ZDF) rats; settings: cited from earlier work
[6] = tested on: Sprague-Dawley rats; settings: 20 mg/kg/day for 2 weeks, cited from earlier work
[7] = tested on: male Sprague Dawley rats; settings: 20 mg/kg/day; cited from earlier work
[8] = tested on: conscious rats; settings: 2 mg/ml at 0.4 ml/h for 2 h bid for 4 days; cited from earlier work
[9] = tested on: 3T3 L1 adipocytes; settings: cited from earlier work
[10] = tested on: rats; settings: cited from earlier work
[11] = tested on: patients with type II diabetes; settings: cited from earlier work

For Cc1oc(-c2ccccc2)nc1CCOc1ccc(C[C@H](Nc2ccccc2C(=O)c2ccccc2)C(=O)O)cc1 [farglitazar], the mechanical allodynia [1] is given as “significantly (p<0.05 vs. vehicle, Dunn's post hoc test) reduced”, the “activity at PPAR δ” value [2] is given as “inactive” and the AUC ([3]; 0.5 mg po) is given as 44 ng·h/mL. For the same compound, the Cmax ([3]; 0.5 mg po) was 20 ng/mL, the “Half-life (t1/2)” value ([3]; 0.5 mg po) was 3 h and the AUC ([3]; 1.5 mg po) was 111 ng·h/mL. The Cmax ([3]; 1.5 mg po) was 48 ng/mL, the “Half-life (t1/2)” value ([3]; 1.5 mg po) was 3.9 h and the AUC ([3]; 5 mg po) was 355 ng·h/mL. For the same compound, the Cmax ([3]; 5 mg po) was 168 ng/mL, the “Half-life (t1/2)” value ([3]; 5 mg po) was 4.9 h and the AUC ([3]; 15 mg po) was 963 ng·h/mL. The Cmax ([3]; 15 mg po) was 378 ng/mL, the “Half-life (t1/2)” value ([3]; 15 mg po) was 4.9 h and the AUC ([3]; 40 mg po) was 2636 ng·h/mL. For the same compound, the Cmax ([3]; 40 mg po) was 1173 ng/mL, the “Half-life (t1/2)” value ([3]; 40 mg po) was 5.3 h and the tolerability ([3]; single oral doses) was “well tolerated”. For the same compound, the “non-fasted glucose and insulin” value [4] was “significant decrease”, the “rats that maintained normal fed glucose levels throughout the 24-week study” value ([5]; 3 mg/kg/day, start at 6 weeks) was 12 of 13 and the “rats that maintained fed plasma glucose levels” value ([5]; 3 mg/kg/day, start at 10 weeks) was 0 of 10. The “levels of non-esterified fatty acids” value ([5]; rat, in vivo) was “dose-dependently reduced”, the “serum VEGF” value ([6]; high-fat diet) was “significantly suppressed” and the postprandial serum insulin [6] was “normalized”. The “elevation of ENaC α subunit mRNA in kidney medulla” value [7] was 32%, the “elevation of PPARgamma mRNA in kidney medulla” value [7] was 31% and the “elevation of glucocorticoid receptor mRNA in kidney medulla” value [7] was 13%. For the same compound, the plasma volume [7] was “rapid onset of plasma volume expansion”, the “mean arterial blood pressure” value [8] was “fall” and the “basal VEGF secretion” value [9] was “modestly increased”. For the same compound, the “vasodilator NO levels” value ([10]; 8 mg/kg bid po) was “Increased”, the “systemic vascular pressure and arterial pressure” value ([10]; diabetic rats, 8 mg/kg bid, 10 days) was “decreased” and the blood pressure ([11]; 5 and 10 mg/day, hypertensive type II diabetic patients) was “significantly lowered”. For the same compound, the “glucose, insulin and triglycerides” value ([11]; 14-day trial, 35 patients) was “significant reductions”.
